Reference: patent publication US20240197726A1, “NOVEL TETRAHYDROISOQUINOLINE ALKALOID COMPOUND CONTAINING MACROCYCLE” (THE UNIVERSITY OF TOKYO, priority 2021, published 2024)
Where two headings read alike, the source gives them in different places.

Key:
Type in all cases: cell-based
[1] = tested on: SF-295 central nervous system cancer cells; test: antitumor activity, sulforhodamine B cell growth assay, SF-295; details: Homo sapiens
Protocol: (§1) The THIQ compound containing a macrocyclic structure of the present invention was administered to various cancer cell lines, and the antitumor activity (Go value) was observed. Specifically, verification was performed according to the literature (Yamori, T.; Matsunaga, A.; Sato, S.; Yamazaki, K.; Komi, A.; Ishizu, K. et al. Cancer Res. 1999, 59, 4042) by the following procedure.
(§2) Cells were plated at an appropriate density in a 96-well plate in RPMI 1640 together with 5% fetal bovine serum, and adhered overnight. The cells were exposed to a drug for 48 hours. Then, according to the sulforhodamine B assay described by Skehan et al (Skehan P., Storeng R., Scudiero D., Monks A., McMahon J., Vistica D., Warren J. T., Bokesch H., Kenney S., Boyd M. R. J Natl. Cancer Inst, 1990, 82, 1107-1112), the cell growth rate was measured. The absorbance of the control well (C) and the test well (T) was measured at 525 nm. In addition, the time at which the drug was added was set as time 0, and the absorbance for the test well (T0) was measured. Using these measured values, the cell growth inhibitory effect (% growth=PG) was calculated by the following formula at each concentration of the drug.
(§3) (T<T0): PG=100×[(T−T0)/T]
(§4) The PG values determined above for each cell line were plotted against the concentration (logarithm) on a semi-logarithmic graph, and summarized for each visceral cancer. Concentrations at which the dose-response curve of each cell line crossed the horizontal line of PG=50%, 0%, or −50% were calculated. These concentrations were defined as Log GI50, Log TGI, and Log LC50. Actually, using two data points of the drug concentration before and after crossing each horizontal line, the drug concentration (logarithmic value) at the intersection of the straight line connecting the two points and the horizontal line for each PG was calculated.

[2] = tested on: St-4 gastric cancer cells; test: antitumor activity, sulforhodamine B cell growth assay, St-4
Protocol: as §1, §2, §3, §4

[3] = tested on: NCI-H226 lung cancer cells; test: antitumor activity, sulforhodamine B cell growth assay, NCI-H226; details: Homo sapiens
Protocol: as §1, §2, §3, §4

[4] = tested on: SNB-78 central nervous system cancer cells; test: antitumor activity, sulforhodamine B cell growth assay, SNB-78; details: Homo sapiens
Protocol: as §1, §2, §3, §4

[5] = tested on: RXF-631L kidney cancer cells; test: antitumor activity, sulforhodamine B cell growth assay, RXF-631L
Protocol: as §1, §2, §3, §4

[6] = tested on: MDA-MB-231 breast cancer cells; test: antitumor activity, sulforhodamine B cell growth assay, MDA-MB-231; details: Homo sapiens
Protocol: as §1, §2, §3, §4

[7] = tested on: HCT-116 colorectal cancer cells; test: antitumor activity, sulforhodamine B cell growth assay, HCT-116; details: Homo sapiens
Protocol: as §1, §2, §3, §4

[8] = tested on: OVCAR-5 cervical cancer cells; test: antitumor activity, sulforhodamine B cell growth assay, OVCAR-5; details: Homo sapiens
Protocol: as §1, §2, §3, §4

[9] = tested on: HCT-15 colorectal cancer cells; test: antitumor activity, sulforhodamine B cell growth assay, HCT-15; details: Homo sapiens
Protocol: as §1, §2, §3, §4

[10] = tested on: MKN-A gastric cancer cells; test: antitumor activity, sulforhodamine B cell growth assay, MKN-A
Protocol: as §1, §2, §3, §4

ACHN kidney cancer cells = test: antitumor activity, sulforhodamine B cell growth assay, ACHN; details: Homo sapiens
Protocol: as §1, §2, §3, §4

OVCAR-4 cancer cells = test: antitumor activity, sulforhodamine B cell growth assay, OVCAR-4; details: Homo sapiens
Protocol: as §1, §2, §3, §4

[11] = tested on: HBC-4 breast cancer cells; test: antitumor activity, sulforhodamine B cell growth assay, HBC-4; details: HBC4
Protocol: as §1, §2, §3, §4

[12] = tested on: HT-29 colorectal cancer cells; test: antitumor activity, sulforhodamine B cell growth assay, HT-29; details: Homo sapiens
Protocol: as §1, §2, §3, §4

[13] = tested on: NCI-H522 lung cancer cells; test: antitumor activity, sulforhodamine B cell growth assay, NCI-H522; details: Homo sapiens
Protocol: as §1, §2, §3, §4

DMS114 lung cancer cells = test: antitumor activity, sulforhodamine B cell growth assay, DMS114; details: Homo sapiens, DMS-114
Protocol: as §1, §2, §3, §4

[14] = tested on: MKN-B gastric cancer cells; test: antitumor activity, sulforhodamine B cell growth assay, MKN-B
Protocol: as §1, §2, §3, §4

[15] = tested on: MKN45 gastric cancer cells; test: antitumor activity, sulforhodamine B cell growth assay, MKN45; details: Homo sapiens, MKN-45
Protocol: as §1, §2, §3, §4

[16] = SF-295 central nervous system cancer cells, read-out: antitumor activity GI50 value: 50% growth inhibitory concentration
[17] = SI-4 gastric cancer cells, read-out: antitumor activity GI50 value: 50% growth inhibitory concentration
[18] = NCI-H226, NCl-H226 lung cancer cells, read-out: antitumor activity GI50 value: 50% growth inhibitory concentration
[19] = SNB-78 central nervous system cancer cells, read-out: antitumor activity GI50 value: 50% growth inhibitory concentration
[20] = RXF-631L kidney cancer cells, read-out: antitumor activity GI50 value: 50% growth inhibitory concentration
[21] = MDA-MB-231 breast cancer cells, read-out: antitumor activity GI50 value: 50% growth inhibitory concentration
[22] = HCT-116 colorectal cancer cells, read-out: antitumor activity GI50 value: 50% growth inhibitory concentration
[23] = OVCAR-5 cervical cancer cells, read-out: antitumor activity GI50 value: 50% growth inhibitory concentration
[24] = HCT-15 colorectal cancer cells, read-out: antitumor activity GI50 value: 50% growth inhibitory concentration
[25] = MKN-A gastric cancer cells, read-out: antitumor activity GI50 value: 50% growth inhibitory concentration
[26] = ACHN kidney cancer cells, read-out: antitumor activity GI50 value: 50% growth inhibitory concentration
[27] = OVCAR-4 cervical cancer cells, read-out: antitumor activity GI50 value: 50% growth inhibitory concentration
[28] = HBC-4 breast cancer cells, read-out: antitumor activity GI50 value: 50% growth inhibitory concentration
[29] = HT-29 colorectal cancer cells, read-out: antitumor activity GI50 value: 50% growth inhibitory concentration
[30] = NCI-H522, NCl-H522 lung cancer cells, read-out: antitumor activity GI50 value: 50% growth inhibitory concentration
[31] = DMS114 lung cancer cells, read-out: antitumor activity GI50 value: 50% growth inhibitory concentration
[32] = MKN-B gastric cancer cells, read-out: antitumor activity GI50 value: 50% growth inhibitory concentration
[33] = MKN45 gastric cancer cells, read-out: antitumor activity GI50 value: 50% growth inhibitory concentration

In the case of `CC1=C(C)C(=O)C2=C(CC3(C)[C@H]4c5c(cc(C)c(C)c5C)C[C@@](C)(C(C)N3[C@H]2CNC(=O)C(C)C)N4C)C1=O` (stereo partly drawn) [drawing 160], the GI50 [1, 16] is reported as 500 nM, the GI50 [2, 17] is reported as 430 nM and the GI50 [3, 18] is reported as 310 nM. For the same molecule, the GI50 [4, 19] was 63 nM, the GI50 [5, 20] was 400 nM and the GI50 [6, 21] was 130 nM. It also gave a GI50 [7, 22] of 290 nM, a GI50 [8, 23] of 390 nM and a GI50 [9, 24] of 390 nM. It also gave a GI50 [10, 25] of 250 nM, a GI50 (ACHN kidney cancer cells; [26]) of 320 nM and a GI50 (OVCAR-4 cancer cells; [27]) of 290 nM. The GI50 [11, 28] was 59 nM, the GI50 [12, 29] was 190 nM and the GI50 [13, 30] was 43 nM. For the same molecule, the GI50 (DMS114 lung cancer cells; [31]) was 35 nM, the GI50 [14, 32] was 170 nM and the GI50 [15, 33] was 300 nM.
`C#CCN1C/C=C/COc2c(C)c3c(c4c2C[C@H]2[C@H]5c6c(cc(C)c(OC)c6O)C[C@@H]([C@H](C#N)N2C4CNC(=O)[C@@H]1C)N5C)OCO3` [Compound 44] gave a GI50 [1, 16] of less than 10 nM, a GI50 [2, 17] of less than 10 nM and a GI50 [3, 18] of less than 10 nM. The GI50 [4, 19] was less than 10 nM, the GI50 [5, 20] was less than 10 nM and the GI50 [6, 21] was less than 10 nM. For the same molecule, the GI50 [7, 22] was less than 10 nM, the GI50 [8, 23] was less than 10 nM and the GI50 [9, 24] was less than 10 nM. It also gave a GI50 [10, 25] of less than 10 nM, a GI50 (ACHN kidney cancer cells; [26]) of less than 10 nM and a GI50 (OVCAR-4 cancer cells; [27]) of less than 10 nM. For the same molecule, the GI50 [11, 28] was less than 10 nM, the GI50 [12, 29] was less than 10 nM and the GI50 [13, 30] was less than 10 nM. It also gave a GI50 (DMS114 lung cancer cells; [31]) of less than 10 nM, a GI50 [14, 32] of less than 10 nM and a GI50 [15, 33] of less than 10 nM.
`C#CCN1C/C=C/C(=C)COc2c(C)c3c(c4c2C[C@H]2[C@H]5c6c(cc(C)c(OC)c6O)C[C@@H]([C@H](C#N)N2C4CNC(=O)[C@@H]1C)N5C)OCO3` [Compound 35] was tested, and the GI50 ([1]; SF-295, drug exposure 48 hours, read-out: GI50 value: 50% growth inhibitory concentration) was 3.8 nM, the GI50 ([2]; St-4 (SI-4 in Tables 2-11), drug exposure 48 hours, read-out: GI50 value: 50% growth inhibitory concentration) was 3.8 nM and the GI50 ([3]; NCI-H226, drug exposure 48 hours, read-out: GI50 value: 50% growth inhibitory concentration) was 2.7 nM. It also gave a GI50 ([4]; SNB-78, drug exposure 48 hours, read-out: GI50 value: 50% growth inhibitory concentration) of 3.4 nM, a GI50 ([5]; RXF-631L, drug exposure 48 hours, read-out: GI50 value: 50% growth inhibitory concentration) of 2.9 nM and a GI50 ([6]; MDA-MB-231, drug exposure 48 hours, read-out: GI50 value: 50% growth inhibitory concentration) of 2.7 nM. For the same molecule, the GI50 ([7]; HCT-116, drug exposure 48 hours, read-out: GI50 value: 50% growth inhibitory concentration) was 2.7 nM, the GI50 ([8]; OVCAR-5, drug exposure 48 hours, read-out: GI50 value: 50% growth inhibitory concentration) was 3.3 nM and the GI50 ([9]; HCT-15, drug exposure 48 hours, read-out: GI50 value: 50% growth inhibitory concentration) was 4.5 nM. For the same molecule, the GI50 ([10]; MKN-A, drug exposure 48 hours, read-out: GI50 value: 50% growth inhibitory concentration) was 3.7 nM, the GI50 (ACHN kidney cancer cells; ACHN, drug exposure 48 hours, read-out: GI50 value: 50% growth inhibitory concentration) was 3.1 nM and the GI50 (OVCAR-4 cancer cells; OVCAR-4, drug exposure 48 hours, read-out: GI50 value: 50% growth inhibitory concentration) was 3.6 nM. For the same molecule, the GI50 ([11]; HBC-4, drug exposure 48 hours, read-out: GI50 value: 50% growth inhibitory concentration) was 2.2 nM, the GI50 ([12]; HT-29, drug exposure 48 hours, read-out: GI50 value: 50% growth inhibitory concentration) was 3.2 nM and the GI50 ([13]; NCI-H522, drug exposure 48 hours, read-out: GI50 value: 50% growth inhibitory concentration) was 1.1 nM. For the same molecule, the GI50 (DMS114 lung cancer cells; DMS114, drug exposure 48 hours, read-out: GI50 value: 50% growth inhibitory concentration) was 1.2 nM, the GI50 ([14]; MKN-B, drug exposure 48 hours, read-out: GI50 value: 50% growth inhibitory concentration) was 3.5 nM and the GI50 ([15]; MKN45, drug exposure 48 hours, read-out: GI50 value: 50% growth inhibitory concentration) was 2.7 nM.
